Measurements: patent US6737383B1, “Herbicidal oxadiazolidines” (priority 1999, dated 2004)

How the values were obtained:
Green foxtail [1] = assay: Test D green foxtail; type: in vivo; settings: Postemergence, 0 to 100 scale, 0 no injury, 100 complete control
crabgrass = assay: Test B pre/postemergence crabgrass; type: in vivo, Digitaria sanguinalis; settings: for Crabgrass plant response rating: scale of 0 to 10 where 0 is no effect and 10 is complete control
Summary of the method: (§1)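 Test chemicals in a non-phytotoxic solvent mixture with surfactant were sprayed preemergence onto planted seeds and postemergence onto plants 2 to 18 cm tall (1- to 4-leaf stage). After twelve to sixteen days in a greenhouse, injury was visually rated against untreated controls from 0 (no effect) to 10 (complete control).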

sandbur = assay: Test D sandbur; type: in vivo, Cenchrus echinatus; settings: Postemergence, 0 to 100 scale
Green foxtail [2] = assay: Test D green foxtail; type: in vivo; settings: Postemergence, 0 to 100 scale, 0 no injury, 100 complete control; remark: listed apart in the source
blackgrass = assay: Test B pre/postemergence blackgrass; type: in vivo, Alopecurus myosuroides
Summary of the method: as §1

bamyardgrass = assay: Test B flood test barnyardgrass; type: in vivo, Echinochloa crus-galli; settings: for Barnyardgrass plant response rating: Rate 62 g/ha
Summary of the method: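 Each value is a visual injury score relative to controls, with 10 meaning complete control and 0 no effect. Evaluation took place twelve to sixteen days after the 2-leaf-stage plants were treated and kept in the greenhouse.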

morningglory = assay: Test B pre/postemergence morningglory; type: in vivo, Ipomoea hederacea; settings: for Morningglory plant response rating: scale of 0 to 10 where 0 is no effect and 10 is complete control
Summary of the method: as §1

[3] = Postemergence, Rate 125 g/ha, scale 0 to 10, 0 is no effect, 10 is complete control
[4] = Preemergence, Rate 62 g/ha, scale 0 to 10 (0 no effect, 10 complete control)
[5] = Rate 500 g/ha, Postemergence, scale 0 to 10, 0 no effect, 10 complete control
[6] = Rate 16 g/ha, 0 no injury, 100 complete control
[7] = Rate 32 g/ha, 0 no injury, 100 complete control
[8] = Rate 64 g/ha, 0 no injury, 100 complete control
[9] = Rate 125 g/ha, 0 no injury, 100 complete control
[10] = Preemergence, Rate 250 g/ha, scale of 0 to 10 where 0 is no effect and 10 is complete control
[11] = Preemergence, Rate 500 g/ha, scale of 0 to 10 where 0 is no effect and 10 is complete control
[12] = Rate 62 g/ha, Postemergence, scale of 0 to 10 where 0 is no effect and 10 is complete control
[13] = Postemergence (flood test), Rate 125 g/ha, scale 0 to 10, 0 is no effect, 10 is complete control
[14] = Postemergence (flood test species), scale of 0 to 10 where 0 is no effect and 10 is complete control
[15] = Rate 500 g/ha, listed under Postemergence (flood test species), scale 0 to 10, 0 no effect, 10 complete control
[16] = Postemergence, Rate 250 g/ha, scale 0 to 10, 0 is no effect, 10 is complete control

SMILES | Plant response rating, Green foxtail (Green foxtail [1]; Rate 64 g/ha) | Plant response rating, Green foxtail (Green foxtail [1]; Rate 125 g/ha) | Plant response rating, Crabgrass (crabgrass; [3]) | Plant response rating, Crabgrass (crabgrass; [4]) | Crabgrass plant response rating (0 to 10 scale) (crabgrass; Preemergence, Rate 125 g/ha) | Crabgrass plant response rating (crabgrass; Preemergence, Rate 250 g/ha) | Crabgrass plant response rating (crabgrass; Preemergence, Rate 500 g/ha) | Crabgrass plant response rating (crabgrass; Rate 62 g/ha, Postemergence) | Plant response rating, Crabgrass (crabgrass; [5]) | Plant response rating, Sandbur (sandbur; [6]) | Plant response rating, Sandbur (sandbur; [7]) | Sandbur plant response rating (sandbur; [8]) | Sandbur plant response rating (sandbur; [9]) | Plant response rating, Sandbur (sandbur; Rate 250 g/ha) | Green foxtail plant response rating (Green foxtail [2]; Rate 64 g/ha) | Green foxtail plant response rating (Green foxtail [2]; Rate 125 g/ha) | Plant response rating, Blackgrass (blackgrass; [3]) | Plant response rating, Blackgrass (blackgrass; [4]) | Blackgrass plant response rating (0 to 10 scale) (blackgrass; Preemergence, Rate 125 g/ha) | Blackgrass plant response rating (blackgrass; [10]) | also measured
COCC(C)n1c(=O)on(C(=O)N(c2ccc(F)cc2F)C(C)C)c1=O (stereo not drawn) [Compound 352] | 100 | 100 | 3 | 9 | 10 | 10 | 10 | 1 | 4 | 0 | 90 | 70 | 100 | 100 | 100 | 100 | 8 | 9 | 10 | 10 | Blackgrass plant response rating (blackgrass; [11]): 10; Blackgrass plant response rating (blackgrass; [12]): 8; Plant response rating, Blackgrass (blackgrass; Rate 250 g/ha, Postemergence, scale of 0 to 10 where 0 is no effect and 10 is complete control): 8; Plant response rating, Blackgrass (blackgrass; [5]): 8; Plant response rating, Barnyardgrass (bamyardgrass; [13]): 3; Barnyardgrass plant response rating (bamyardgrass; [14]): 0; Plant response rating, Barnyardgrass (bamyardgrass; Rate 250 g/ha, Postemergence (flood test species), scale of 0 to 10 where 0 is no effect and 10 is complete control): 3; Plant response rating, Barnyardgrass (bamyardgrass; [15]): 3; Plant response rating, Morningglory (morningglory; [3]): 6; Plant response rating, Morningglory (morningglory; [4]): 0; Morningglory plant response rating (0 to 10 scale) (morningglory; Preemergence, Rate 125 g/ha): 0; Morningglory plant response rating (morningglory; Preemergence, Rate 250 g/ha): 0; Morningglory plant response rating (morningglory; Preemergence, Rate 500 g/ha): 2; Morningglory plant response rating (morningglory; Rate 62 g/ha, Postemergence): 0; Plant response rating, Morningglory (morningglory; [5]): 8
CC(C)N(C(=O)n1oc(=O)n(C2(C)CC2)c1=O)c1ccccc1 [Compound 360] | 100 | 100 | 2 | 9 | 10 | 10 | 10 | 2 | 5 | 0 | 90 | 50 | 100 | 100 | 100 | 100 | 5 | 9 | 9 | 9 | Plant response rating, Crabgrass (crabgrass; [16]): 5; Plant response rating, Blackgrass (blackgrass; [16]): 6; Blackgrass plant response rating (blackgrass; [11]): 10; Blackgrass plant response rating (blackgrass; [12]): 5; Plant response rating, Blackgrass (blackgrass; [5]): 7; Plant response rating, Barnyardgrass (bamyardgrass; [13]): 2; Barnyardgrass plant response rating (bamyardgrass; [14]): 2; Plant response rating, Barnyardgrass (bamyardgrass; [15]): 7; Plant response rating, Barnyardgrass (bamyardgrass; flood test species, listed under Postemergence, Rate 250 g/ha, scale 0 to 10, 0 is no effect, 10 is complete control): 6; Plant response rating, Morningglory (morningglory; [3]): 4; Plant response rating, Morningglory (morningglory; [16]): 4; Plant response rating, Morningglory (morningglory; [4]): 0; Morningglory plant response rating (0 to 10 scale) (morningglory; Preemergence, Rate 125 g/ha): 5; Morningglory plant response rating (morningglory; Preemergence, Rate 250 g/ha): 7; Morningglory plant response rating (morningglory; Preemergence, Rate 500 g/ha): 10; Morningglory plant response rating (morningglory; Rate 62 g/ha, Postemergence): 4; Plant response rating, Morningglory (morningglory; [5]): 5
